Test system: patients with elevated triglyceride levels on statin therapy
Assay: REDUCE-IT total (first and subsequent) ischemic events (Example 3; negative binomial, Wei-Lin-Weissfeld, Andersen-Gill, joint frailty models)
Format: in vivo, human
Set-up: total (first and subsequent) ischemic events for primary composite endpoint, relative risk reduction / first events, reduction / second events, reduction / third events, reduction / fourth or more events, reduction: concentration or dose not given beside the values
Details: for HR (95% CI), Key Secondary Composite Endpoint / HR (95% CI), Primary Composite Endpoint / RR (95% CI), Key Secondary Composite Endpoint, total events / RR (95% CI), Primary Composite Endpoint, total events: full dataset; for RR (95% CI), Key Secondary Composite Endpoint, total events / RR (95% CI), Primary Composite Endpoint, total events: icosapent ethyl vs placebo
From the text: The following study was a multi-center, placebo-controlled clinical trial the details of which are described above in Example 1, the REDUCE-IT design. […] The main outcomes were total primary composite endpoint events defined as cardiovascular death, nonfatal myocardial infarction, nonfatal stroke, coronary revascularization, or hospitalization for unstable angina and total key secondary composite endpoint events defined as cardiovascular death, nonfatal myocardial infarction, or nonfatal stroke. In the context of this study, total events refer to any first event as well as any subsequent event. Differences in total events were determined using other statistical models, including Andersen-Gill, Wei-Lin-Weisfeld (Li and Lagakos), both pre-specified, and a post hoc and joint-frailty analysis.
For the present prespecified analysis, the primary outcome was the total of first plus subsequent ischemic events consisting of the composite of cardiovascular death, nonfatal myocardial infarction, nonfatal stroke, coronary revascularization, or hospitalization for unstable angina. […] Exploratory analyses of the total of first and subsequent events were also performed for the key secondary composite endpoint.
Baseline characteristics were compared between treatment groups using the chi-squared test for categorical variables and the Wilcoxon rank sum test for continuous variables. There are several methods for analyzing first and subsequent (recurrent) event data. As a pre-specified statistical method, a negative binomial regression was used to calculate rates and rate ratios for total cardiovascular events, which accounts for the variability in each patient's risk of events. As pre-specified supportive analyses, the modified Wei-Lin-Weissfeld method (Li and Lagakos modification) was used to calculate hazard ratios (HRs) for the time to the first event, second event, or third event. An additional pre-specified analysis, the Andersen-Gill model using a Cox proportional-hazard with the counting-process formulation was performed to model the total events. In addition, in order to account for informative censoring due to cardiovascular death, the HR for total non-fatal events was calculated using a joint frailty model (See Rondeau V. Joint frailty models for recurring events and death using maximum penalized likelihood estimation: application on cancer events. Biostatistics. 2007; 8:708-21). The joint frailty model simultaneously estimates hazard functions for non-fatal and fatal CV events and takes into account the fact that patients who are prone to have nonfatal events have an elevated risk of a cardiovascular death. The application of the joint frailty model used a gamma distribution for the frailty term.
Statistical analyses using the full adjudicated endpoint events dataset without exclusions using this bundling approach were also determined.

[1] = Andersen-Gill (I) model, adjusted, vs placebo
[2] = Andersen-Gill (I) model, reduced dataset, vs placebo
[3] = Andersen-Gill (I) model, unadjusted, vs placebo
[4] = Andersen-Gill (II) model, adjusted, vs placebo
[5] = Andersen-Gill (II) model, reduced dataset, vs placebo
[6] = Andersen-Gill (II) model, unadjusted, vs placebo
[7] = Joint frailty model, reduced dataset, vs placebo
[8] = Modified WLW model, reduced dataset, vs placebo
[9] = Modified WLW, first event, adjusted, vs placebo
[10] = Modified WLW, first event, unadjusted, vs placebo
[11] = Modified WLW, second event, adjusted, vs placebo
[12] = Modified WLW, second event, unadjusted, vs placebo
[13] = Modified WLW, third event, adjusted, vs placebo
[14] = Modified WLW, third event, unadjusted, vs placebo
[15] = N = 4089, same-day multiple endpoints handled as a single event
[16] = Negative binomial model, adjusted for stratification factors
[17] = Negative binomial model, reduced dataset, vs placebo
[18] = Negative binomial model, unadjusted
[19] = Wei-Lin-Weissfeld model, Example 3
[20] = per 1000 patients treated for five years

CC/C=C\C/C=C\C/C=C\C/C=C\C/C=C\CCCC(=O)OCC [icosapent ethyl, eicosapentaenoic acid ethyl ester] was tested, and the “HR (95% CI), Key Secondary Composite Endpoint” value [1] was 0.71, the “HR (95% CI), Primary Composite Endpoint” value [1] was 0.68 and the “Adjusted HR, key secondary composite endpoint, total events” value [2] was 0.72. For the same molecule, the “Adjusted HR, primary composite endpoint, total events” value [2] was 0.69, the “Unadjusted HR, key secondary composite endpoint, total events” value [2] was 0.72 and the “Unadjusted HR, primary composite endpoint, total events” value [2] was 0.69. For the same molecule, the “HR (95% CI), Key Secondary Composite Endpoint” value [3] was 0.71, the “HR (95% CI), Primary Composite Endpoint” value [3] was 0.68 and the “HR (95% CI), Key Secondary Composite Endpoint” value [4] was 0.71. The “HR (95% CI), Primary Composite Endpoint” value [4] was 0.68, the “Adjusted HR, key secondary composite endpoint, total events” value [5] was 0.72 and the “Adjusted HR, primary composite endpoint, total events” value [5] was 0.69. For the same molecule, the “Unadjusted HR, key secondary composite endpoint, total events” value [5] was 0.72, the “Unadjusted HR, primary composite endpoint, total events” value [5] was 0.69 and the “HR (95% CI), Key Secondary Composite Endpoint” value [6] was 0.71. The “HR (95% CI), Primary Composite Endpoint” value [6] was 0.68, the “first events, reduction” value (Example 3) was 25% and the “fourth or more events, reduction” value (Example 3) was 48%. The “second events, reduction” value (Example 3) was 32%, the “third events, reduction” value (Example 3) was 31% and the “HR, Cardiovascular Death, key secondary endpoint, adjusted” value [7] was 0.79. For the same molecule, the “HR, Cardiovascular Death, key secondary endpoint, unadjusted” value [7] was 0.79, the “HR, Cardiovascular Death, primary endpoint, adjusted” value [7] was 0.80 and the “HR, Cardiovascular Death, primary endpoint, unadjusted” value [7] was 0.80. The “HR, Non-fatal Cardiovascular Event, key secondary endpoint, adjusted” value [7] was 0.68, the “HR, Non-fatal Cardiovascular Event, key secondary endpoint, unadjusted” value [7] was 0.68 and the “HR, Non-fatal Cardiovascular Event, primary endpoint, adjusted” value [7] was 0.67. The “HR, Non-fatal Cardiovascular Event, primary endpoint, unadjusted” value [7] was 0.66, the “Adjusted HR, key secondary composite endpoint, first event” value [8] was 0.74 and the “Adjusted HR, key secondary composite endpoint, second event” value [8] was 0.75. The “Adjusted HR, key secondary composite endpoint, third event” value [8] was 0.79, the “Adjusted HR, primary composite endpoint, first event” value [8] was 0.75 and the “Adjusted HR, primary composite endpoint, second event” value [8] was 0.68. For the same molecule, the “Adjusted HR, primary composite endpoint, third event” value [8] was 0.69, the “Unadjusted HR, key secondary composite endpoint, first event” value [8] was 0.74 and the “Unadjusted HR, key secondary composite endpoint, second event” value [8] was 0.75. The “Unadjusted HR, key secondary composite endpoint, third event” value [8] was 0.79, the “Unadjusted HR, primary composite endpoint, first event” value [8] was 0.76 and the “Unadjusted HR, primary composite endpoint, second event” value [8] was 0.69. For the same molecule, the “Unadjusted HR, primary composite endpoint, third event” value [8] was 0.69, the “HR (95% CI), Key Secondary Composite Endpoint” value [9] was 0.74 and the “HR (95% CI), Primary Composite Endpoint” value [9] was 0.75. For the same molecule, the “HR (95% CI), Key Secondary Composite Endpoint” value [10] was 0.74, the “HR (95% CI), Primary Composite Endpoint” value [10] was 0.76 and the “HR (95% CI), Key Secondary Composite Endpoint” value [11] was 0.75. The “HR (95% CI), Primary Composite Endpoint” value [11] was 0.68, the “HR (95% CI), Key Secondary Composite Endpoint” value [12] was 0.75 and the “HR (95% CI), Primary Composite Endpoint” value [12] was 0.69. The “HR (95% CI), Key Secondary Composite Endpoint” value [13] was 0.79, the “HR (95% CI), Primary Composite Endpoint” value [13] was 0.70 and the “HR (95% CI), Key Secondary Composite Endpoint” value [14] was 0.79. The “HR (95% CI), Primary Composite Endpoint” value [14] was 0.70, the “Key secondary endpoint: Total events before reduction, % of overall events” value (N = 4089) was 42.0% and the “Primary endpoint: Total events before reduction, % of overall events” value (N = 4089) was “(40.7) %”. For the same molecule, the “Key secondary endpoint: Fatal events, % of overall events” value (N = 4089, after reduction) was 45.0%, the “Key secondary endpoint: Non-fatal events, % of overall events” value (N = 4089, after reduction) was 40.9% and the “Primary endpoint: Fatal events, % of overall events” value (N = 4089, after reduction) was “(45.0) %”. The “Primary endpoint: Non-fatal events, % of overall events” value (N = 4089, after reduction) was “(40.4) %”, the “Key secondary endpoint: Total events after reduction, % of overall events” value [15] was 42.1% and the “Primary endpoint: Total events after reduction, % of overall events” value [15] was “(41.0) %”. For the same molecule, the “RR (95% CI), Key Secondary Composite Endpoint, total events” value [16] was 0.71, the “RR (95% CI), Primary Composite Endpoint, total events” value [16] was 0.69 and the “Adjusted RR, key secondary composite endpoint, total events” value [17] was 0.72. The “Adjusted RR, primary composite endpoint, total events” value [17] was 0.70, the “Unadjusted RR, key secondary composite endpoint, total events” value [17] was 0.71 and the “Unadjusted RR, primary composite endpoint, total events” value [17] was 0.68. The “RR (95% CI), Key Secondary Composite Endpoint, total events” value [18] was 0.71, the “RR (95% CI), Primary Composite Endpoint, total events” value [18] was 0.67 and the “first occurrence of primary composite endpoint, HR” value [19] was 0.75. The “second occurrence of primary composite endpoint, HR” value [19] was 0.68, the “total (first and subsequent) ischemic events for primary composite endpoint, relative risk reduction” value (in vivo) was 30% and the cardiovascular deaths prevented [20] was 12. For the same molecule, the coronary revascularizations prevented [20] was 76, the “episodes of hospitalization for unstable angina prevented” value [20] was 16 and the myocardial infarctions prevented [20] was 42. The strokes prevented [20] was 14, the “total primary endpoint events prevented” value [20] was “approximately 159” and the “total key secondary endpoint event rate” value (placebo 44) was 32 per 1000 patient years. The “total (first and subsequent) primary endpoint event rate” value (placebo 89) was 61 per 1000 patient years, the “total key secondary endpoint events, RR” value (vs placebo) was 0.72 and the “total primary endpoint events, rate ratio (RR)” value (vs placebo) was 0.70.

From US20200261391A1, “METHODS OF REDUCING THE RISK OF A CARDIOVASCULAR EVENT IN A STATIN-TREATED SUBJECT BY INCREASING SERUM AND PLASMA EPA AND DPA LEVELS” (Amarin Pharmaceuticals Ireland Limited, priority 2019, published 2020)
